Experimental data taken from ChEMBL document CHEMBL1154964, “Acidic elements in histamine H(3) receptor antagonists” (Bioorg Med Chem Lett, 2010).

Molecular target: T1, Peroxisome proliferator-activated receptor alpha (Homo sapiens, UniProt Q07869)
T1 sequence (Q07869 whole entry): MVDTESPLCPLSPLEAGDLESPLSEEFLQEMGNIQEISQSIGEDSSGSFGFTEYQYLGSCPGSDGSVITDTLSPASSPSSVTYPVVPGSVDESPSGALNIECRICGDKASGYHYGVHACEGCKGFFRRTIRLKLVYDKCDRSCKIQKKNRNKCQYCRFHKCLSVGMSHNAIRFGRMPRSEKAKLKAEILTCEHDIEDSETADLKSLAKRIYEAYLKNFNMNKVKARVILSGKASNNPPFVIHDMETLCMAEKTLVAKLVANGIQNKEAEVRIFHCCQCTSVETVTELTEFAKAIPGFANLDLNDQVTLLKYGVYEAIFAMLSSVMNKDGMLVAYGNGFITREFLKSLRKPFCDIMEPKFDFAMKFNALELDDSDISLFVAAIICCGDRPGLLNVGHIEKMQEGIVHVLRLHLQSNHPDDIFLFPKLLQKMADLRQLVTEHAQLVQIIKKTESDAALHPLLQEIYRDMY
Experiment: Agonist activity at human recombinant PPARalpha LBD expressed in african green monkey COS7 cells coexpressing GAL4 by luciferase reporter gene transactivation assay
Assay type: functional, cell-based, COS-7

With `O=C1NC(=S)S/C1=C\c1ccc(OCCCN2CCCCC2)cc1` the EC50 was > 10000 nM.

Molecular target: Histamine H3 receptor (Homo sapiens, UniProt Q9Y5N1)
Sequence (Q9Y5N1 whole entry): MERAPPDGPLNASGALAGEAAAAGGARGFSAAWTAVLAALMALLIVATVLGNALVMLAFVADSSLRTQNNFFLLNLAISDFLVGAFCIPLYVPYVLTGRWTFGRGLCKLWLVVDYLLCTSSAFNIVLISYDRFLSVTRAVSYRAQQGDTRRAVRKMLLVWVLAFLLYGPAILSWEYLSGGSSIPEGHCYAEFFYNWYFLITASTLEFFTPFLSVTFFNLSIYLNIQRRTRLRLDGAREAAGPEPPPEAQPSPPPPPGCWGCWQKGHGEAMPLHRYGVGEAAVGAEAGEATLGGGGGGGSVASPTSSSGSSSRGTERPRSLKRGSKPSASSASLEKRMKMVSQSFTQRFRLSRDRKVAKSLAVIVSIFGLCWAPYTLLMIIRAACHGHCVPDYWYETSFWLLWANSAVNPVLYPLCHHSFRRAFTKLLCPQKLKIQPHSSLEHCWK
Experiment: Displacement of [125I]Iodoproxyfan from human histamine H3 receptor expressed in HEK293 cells after 60 mins by scintillation counting
Assay type: cell-based

Point of comparison: `O=C1NC(=S)S/C1=C\c1ccc(OCCCN2CCCCC2)cc1`, Ki 5.01 nM. Against it:
- O=C(O)c1cn(C2CC2)c2cc(N3CCN(Cc4ccc(OCCCN5CCCCC5)cc4)CC3)c(F)cc2c1=O — 2.5-fold lower, 2 nM
- O=C1NC(=O)C(Cc2ccc(OCCCN3CCCCC3)cc2)S1 (centres undefined) — 10-fold higher, 50.1 nM
- O=C1NC(=O)/C(=C/c2ccc(OCCCN3CCCCC3)cc2)S1 — 1.6-fold higher, 7.94 nM
- c1cc(C2=NCCN2)ccc1OCCCN1CCCCC1 — 1.6-fold higher, 7.94 nM
- O=C(O)C1CSC(c2ccc(OCCCN3CCCCC3)cc2)N1 (centres undefined) — 2-fold higher, 10 nM
- COC(=O)C1CSC(c2ccc(OCCCN3CCCCC3)cc2)N1 (centres undefined) — within 1.5-fold, 3.98 nM
- CN(CCC=C1c2ccccc2CCc2ccccc21)Cc1ccc(OCCCN2CCCCC2)cc1 — 16-fold lower, 0.316 nM
